Organism: Rattus norvegicus
Experiment: DrugMatrix - Regimen: Daily Repeat
Format: toxicity, organism-based, Sprague-Dawley
Design: regimen Daily Repeat, gender Male, age 6-8 weeks
Settings: in vivo, po, route oral GAVAGE, vehicle 100 % WATER; for ABSOLUTE BASOPHIL / ABSOLUTE EOSINOPHIL / ABSOLUTE LYMPHOCYTE / ABSOLUTE MONOCYTE / ABSOLUTE SEGMENTED NEUTROPHIL / BASOPHIL / EOSINOPHIL / ERYTHROCYTE COUNT / HEMATOCRIT / HEMOGLOBIN / LEUKOCYTE COUNT / LYMPHOCYTE / MEAN CORPUSCULAR HEMOGLOBIN / MEAN CORPUSCULAR HEMOGLOBIN CONCENTRATION / MEAN CORPUSCULAR VOLUME / MONOCYTE / NEUTROPHIL / NUCLEATED RED BLOOD CELLS / PLATELET COUNT: tissue Blood; for ALANINE AMINOTRANSFERASE / ALBUMIN / ALKALINE PHOSPHATASE / ASPARTATE AMINOTRANSFERASE / BLOOD UREA NITROGEN / CARBON DIOXIDE / CHLORIDE / CHOLESTEROL / CREATINE PHOSPHOKINASE / CREATININE / GLUCOSE / LACTATE DEHYDROGENASE / LIPASE / PHOSPHORUS / POTASSIUM / SODIUM / TOTAL BILIRUBIN / TOTAL PROTEIN / URIC ACID: tissue Plasma
[1] = 0 mg/kg, 72 h, dose level Control, time 3 day
[2] = 0 mg/kg, 120 h, dose level Control, time 5 day
[3] = 10 mg/kg, 72 h, dose level Low, time 3 day

CC(C)(C)NC[C@H](O)COc1nsnc1N1CCOCC1 [TIMOLOL]
ABSOLUTE BASOPHIL [1]: 0 CELLS/uL | ABSOLUTE EOSINOPHIL [1]: 0 CELLS/uL | ABSOLUTE LYMPHOCYTE [1]: 8482.5 CELLS/uL | ABSOLUTE MONOCYTE [1]: 63.83 CELLS/uL | ABSOLUTE SEGMENTED NEUTROPHIL [1]: 887 CELLS/uL | BASOPHIL [1]: 0% | EOSINOPHIL [1]: 0% | ERYTHROCYTE COUNT [1]: 5.49 x10E6/uL | HEMATOCRIT [1]: 34.5% | HEMOGLOBIN [1]: 13.33 G/DL | LEUKOCYTE COUNT [1]: 9.43 x10E3/uL | LYMPHOCYTE [1]: 90.17% | MEAN CORPUSCULAR HEMOGLOBIN [1]: 24.3 pg | MEAN CORPUSCULAR HEMOGLOBIN CONCENTRATION [1]: 38.63 G/DL | MEAN CORPUSCULAR VOLUME [1]: 62.88 fL | MONOCYTE [1]: 0.67% | NEUTROPHIL [1]: 9.17% | NUCLEATED RED BLOOD CELLS [1]: 0.67 /100WBC | PLATELET COUNT [1]: 1022.83 x10E3/uL | ALANINE AMINOTRANSFERASE [1]: 50.5 u/L | ALBUMIN [1]: 4.08 G/DL | ALKALINE PHOSPHATASE [1]: 368.33 u/L | ASPARTATE AMINOTRANSFERASE [1]: 87.5 u/L | BLOOD UREA NITROGEN [1]: 12.83 mg/dL | CARBON DIOXIDE [1]: 32.83 mmol/L | CHLORIDE [1]: 99.67 MEQ/L | CHOLESTEROL [1]: 79.67 mg/dL | CREATINE PHOSPHOKINASE [1]: 585 u/L | CREATININE [1]: 0.22 mg/dL | GLUCOSE [1]: 135.67 mg/dL | LACTATE DEHYDROGENASE [1]: 171 u/L | LIPASE [1]: 9.5 u/L | PHOSPHORUS [1]: 11.18 mg/dL | POTASSIUM [1]: 6.25 MEQ/L | SODIUM [1]: 144.87 MEQ/L | TOTAL BILIRUBIN [1]: 0.2 mg/dL | TOTAL PROTEIN [1]: 6.08 G/DL | URIC ACID [1]: 0.65 mg/dL | ABSOLUTE BASOPHIL [2]: 0 CELLS/uL | ABSOLUTE EOSINOPHIL [2]: 14.5 CELLS/uL | ABSOLUTE LYMPHOCYTE [2]: 7596.17 CELLS/uL | ABSOLUTE MONOCYTE [2]: 69.67 CELLS/uL | ABSOLUTE SEGMENTED NEUTROPHIL [2]: 503 CELLS/uL | BASOPHIL [2]: 0% | EOSINOPHIL [2]: 0.17% | ERYTHROCYTE COUNT [2]: 5.49 x10E6/uL | HEMATOCRIT [2]: 34.72% | HEMOGLOBIN [2]: 13.47 G/DL | LEUKOCYTE COUNT [2]: 8.18 x10E3/uL | LYMPHOCYTE [2]: 92.17% | MEAN CORPUSCULAR HEMOGLOBIN [2]: 24.57 pg | MEAN CORPUSCULAR HEMOGLOBIN CONCENTRATION [2]: 38.82 G/DL | MEAN CORPUSCULAR VOLUME [2]: 63.3 fL | MONOCYTE [2]: 1% | NEUTROPHIL [2]: 6.67% | NUCLEATED RED BLOOD CELLS [2]: 0 /100WBC | PLATELET COUNT [2]: 1141 x10E3/uL | ALANINE AMINOTRANSFERASE [2]: 48.33 u/L | ALBUMIN [2]: 4.07 G/DL | ALKALINE PHOSPHATASE [2]: 395.67 u/L | ASPARTATE AMINOTRANSFERASE [2]: 85.67 u/L | BLOOD UREA NITROGEN [2]: 15.83 mg/dL | CARBON DIOXIDE [2]: 31.33 mmol/L | CHLORIDE [2]: 100.83 MEQ/L | CHOLESTEROL [2]: 62.33 mg/dL | CREATINE PHOSPHOKINASE [2]: 248.33 u/L | CREATININE [2]: 0.2 mg/dL | GLUCOSE [2]: 135.67 mg/dL | LACTATE DEHYDROGENASE [2]: 141.33 u/L | LIPASE [2]: 9.5 u/L | PHOSPHORUS [2]: 10.73 mg/dL | POTASSIUM [2]: 6.07 MEQ/L | SODIUM [2]: 145.35 MEQ/L | TOTAL BILIRUBIN [2]: 0.22 mg/dL | TOTAL PROTEIN [2]: 6.12 G/DL | URIC ACID [2]: 0.63 mg/dL | ABSOLUTE BASOPHIL [3]: 0 CELLS/uL | ABSOLUTE EOSINOPHIL [3]: 0 CELLS/uL | ABSOLUTE LYMPHOCYTE [3]: 11252 CELLS/uL | ABSOLUTE MONOCYTE [3]: 71.67 CELLS/uL | ABSOLUTE SEGMENTED NEUTROPHIL [3]: 843 CELLS/uL | BASOPHIL [3]: 0% | EOSINOPHIL [3]: 0% | ERYTHROCYTE COUNT [3]: 5.24 x10E6/uL | HEMATOCRIT [3]: 32.97% | HEMOGLOBIN [3]: 12.83 G/DL | LEUKOCYTE COUNT [3]: 12.17 x10E3/uL | LYMPHOCYTE [3]: 92.33% | MEAN CORPUSCULAR HEMOGLOBIN [3]: 24.5 pg | MEAN CORPUSCULAR HEMOGLOBIN CONCENTRATION [3]: 38.93 G/DL | MEAN CORPUSCULAR VOLUME [3]: 62.97 fL | MONOCYTE [3]: 0.67% | NEUTROPHIL [3]: 7% | NUCLEATED RED BLOOD CELLS [3]: 0 /100WBC | PLATELET COUNT [3]: 939 x10E3/uL | ALANINE AMINOTRANSFERASE [3]: 57 u/L | ALBUMIN [3]: 4.03 G/DL | ALKALINE PHOSPHATASE [3]: 444 u/L | ASPARTATE AMINOTRANSFERASE [3]: 84.67 u/L | BLOOD UREA NITROGEN [3]: 14.67 mg/dL | CARBON DIOXIDE [3]: 33 mmol/L | CHLORIDE [3]: 100 MEQ/L | CHOLESTEROL [3]: 81.67 mg/dL | CREATINE PHOSPHOKINASE [3]: 370 u/L | CREATININE [3]: 0.37 mg/dL | GLUCOSE [3]: 138.33 mg/dL | LACTATE DEHYDROGENASE [3]: 111.33 u/L | LIPASE [3]: 10.67 u/L | PHOSPHORUS [3]: 11.57 mg/dL | POTASSIUM [3]: 6.01 MEQ/L | SODIUM [3]: 145.4 MEQ/L | TOTAL BILIRUBIN [3]: 0.17 mg/dL | TOTAL PROTEIN [3]: 5.77 G/DL | URIC ACID [3]: 0.6 mg/dL

Source: ChEMBL document CHEMBL3885881, “DrugMatrix”
